Measured values published in US4362664A, “Vinblastine oxazolidinedione disulfides and related compounds” (priority 1980, dated 1982).

Experiments:
[1] = test system: Chinese hamster ovary cells; assay: standard mitotic inhibition test employing Chinese hamster ovary cells; type: cell-based; conditions: dose 20-2 mcg/ml for accumulation in mitosis; CHO cells
Text: As previously stated, the compounds of this invention are antimitotics, and can adversely affect the growth of malignant cells. This activity is manifested in a standard mitotic inhibition test employing Chinese hamster ovary cells.
In the Table, column 1 gives the name of the compound, column 2 gives the dose in mcg/ml for accumulation in mitosis and column 3, the percent mitotic accumulation as a range.

P388/V = assay: transplanted tumor in mice: P388/V; type: in vivo; conditions: every fourth day (three doses)
Experimental: (§1) The bases of this invention and their salts preparable by the processes disclosed herein are active also in vivo against some but not all transplanted tumors in mice.
(§2) The following table--Table 2--gives the results of this experiment in which mice bearing the transplanted tumor were treated with a compound of this invention. In the table, column 1 gives the name of the compound; column 2, the name of the tumor; column 3, the dosage given; and column 4, the percent inhibition of tumor growth (I) or prolongation of life (PL). The following dosage regimen was employed: every fourth day (three doses) starting on the first day after inoculation.

P388 = assay: transplanted tumor in mice: P388; type: in vivo; conditions: every fourth day (three doses)
Experimental: as §1, §2

Row | Structure (SMILES) | percent mitotic accumulation as a range [1] | Percent Prolongation of life (PL) (P388/V; 1.5 mg/kg) [%] | Percent Prolongation of life (PL) (P388/V; 2.0 mg/kg, * = below 30, not statistically significant) [%] | Percent Prolongation of life (PL) (P388; P388, 1.0 mg/kg) [%] | Percent Prolongation of life (PL) (P388; P388, 1.2 mg/kg) [%] | Percent Prolongation of life (PL) (P388; P388, 1.4 mg/kg) [%]
1 | CC[C@]1(O)C[C@H]2CN(CCc3c([nH]c4ccccc34)[C@@](C(=O)OC)(c3cc4c(cc3OC)N(C)[C@H]3[C@]5(OC(=O)N(CCSSCCNC(=O)OC)C5=O)[C@H](OC(C)=O)[C@]5(CC)C=CCN6CC[C@]43[C@@H]65)C2)C1 [Example 1, Vinblastine 3"-(β-[β-(methoxycarbonylamino)ethyldithio]ethyl)-3-spiro-5"-oxazolidine-2",4"-dione] | 7-10% | 30 | 25 |  |  | 
2 | CC[C@]1(O)C[C@H]2CN(CCc3c([nH]c4ccccc34)[C@@](C(=O)OC)(c3cc4c(cc3OC)N(C)[C@H]3[C@]5(OC(=O)N(CCS)C5=O)[C@H](OC(C)=O)[C@]5(CC)C=CCN6CC[C@]43[C@@H]65)C2)C1 [Example 2, Vinblastine 3"-(β-thioethyl)-3-spiro-5"-oxazolidine-2",4"-dione] | 10-15% |  |  |  |  | 
3 | CC[C@]1(O)C[C@H]2CN(CCc3c([nH]c4ccccc34)[C@@](C(=O)OC)(c3cc4c(cc3OC)N(C)[C@H]3[C@]5(OC(=O)N(CCS)C5=O)[C@H](O)[C@]5(CC)C=CCN6CC[C@]43[C@@H]65)C2)C1 [4-desacetyl vinblastine 3"-(β-thioethyl)-3-spiro-5"-oxazolidine-2",4"-dione] |  |  |  | 52 | 65 | 77
